Data published in patent US12448369B2 (Edgewise Therapeutics, Inc., priority 2023, dated 2025).

Legend:
[1] = test system: Porcine atria myofibrils (atrial myosin ATPase); assay: Myofibril ATPase assay, porcine atria myofibrils; format: biochemical; settings: porcine atria myofibrils
How it was run: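 Porcine atrial myofibrils were tested in a PK/LDH-coupled system where ADP from myosin ATPase drives NADH oxidation. Absorbance at 340 nm was read every 1.5-2 min for 75 min and slopes were normalized to vehicle wells. A 4-parameter logistic fit gave Y75 (25% inhibition) or Y125 (activation) concentrations.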

[2] = test system: Rabbit Psoas myofibrils (skeletal myosin ATPase); assay: Myofibril ATPase assay, rabbit psoas (skeletal) myofibrils; format: biochemical; settings: rabbit psoas myofibrils
How it was run: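 ATPase activity of Triton-washed myofibrils was measured by PK/LDH coupling, following NADH loss at 340 nm every 1.5–2 min for 75 min in PIPES/Ca/EGTA buffer at pH 7.0. Slopes, normalized to vehicle (100%), were fitted to a 4-parameter logistic model. Values are Y75 (25% inhibition) or Y125 (activators).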

[3] = molecular target: T1, Porcine ventricle myofibrils (ventricular myosin ATPase) (Sus scrofa, UniProt P79293); assay: Myofibril ATPase assay, porcine ventricle myofibrils; format: biochemical, porcine (Yucatan minipigs); settings: porcine ventricle myofibrils
T1 construct: Myofibrils from porcine cardiac muscle was isolated from the left ventricle of Yucatan minipigs; tissue Exemplar Genetics; host or cells: left ventricle of Yucatan minipigs, myofibrils prepared in house
T1 sequence (P79293 whole entry): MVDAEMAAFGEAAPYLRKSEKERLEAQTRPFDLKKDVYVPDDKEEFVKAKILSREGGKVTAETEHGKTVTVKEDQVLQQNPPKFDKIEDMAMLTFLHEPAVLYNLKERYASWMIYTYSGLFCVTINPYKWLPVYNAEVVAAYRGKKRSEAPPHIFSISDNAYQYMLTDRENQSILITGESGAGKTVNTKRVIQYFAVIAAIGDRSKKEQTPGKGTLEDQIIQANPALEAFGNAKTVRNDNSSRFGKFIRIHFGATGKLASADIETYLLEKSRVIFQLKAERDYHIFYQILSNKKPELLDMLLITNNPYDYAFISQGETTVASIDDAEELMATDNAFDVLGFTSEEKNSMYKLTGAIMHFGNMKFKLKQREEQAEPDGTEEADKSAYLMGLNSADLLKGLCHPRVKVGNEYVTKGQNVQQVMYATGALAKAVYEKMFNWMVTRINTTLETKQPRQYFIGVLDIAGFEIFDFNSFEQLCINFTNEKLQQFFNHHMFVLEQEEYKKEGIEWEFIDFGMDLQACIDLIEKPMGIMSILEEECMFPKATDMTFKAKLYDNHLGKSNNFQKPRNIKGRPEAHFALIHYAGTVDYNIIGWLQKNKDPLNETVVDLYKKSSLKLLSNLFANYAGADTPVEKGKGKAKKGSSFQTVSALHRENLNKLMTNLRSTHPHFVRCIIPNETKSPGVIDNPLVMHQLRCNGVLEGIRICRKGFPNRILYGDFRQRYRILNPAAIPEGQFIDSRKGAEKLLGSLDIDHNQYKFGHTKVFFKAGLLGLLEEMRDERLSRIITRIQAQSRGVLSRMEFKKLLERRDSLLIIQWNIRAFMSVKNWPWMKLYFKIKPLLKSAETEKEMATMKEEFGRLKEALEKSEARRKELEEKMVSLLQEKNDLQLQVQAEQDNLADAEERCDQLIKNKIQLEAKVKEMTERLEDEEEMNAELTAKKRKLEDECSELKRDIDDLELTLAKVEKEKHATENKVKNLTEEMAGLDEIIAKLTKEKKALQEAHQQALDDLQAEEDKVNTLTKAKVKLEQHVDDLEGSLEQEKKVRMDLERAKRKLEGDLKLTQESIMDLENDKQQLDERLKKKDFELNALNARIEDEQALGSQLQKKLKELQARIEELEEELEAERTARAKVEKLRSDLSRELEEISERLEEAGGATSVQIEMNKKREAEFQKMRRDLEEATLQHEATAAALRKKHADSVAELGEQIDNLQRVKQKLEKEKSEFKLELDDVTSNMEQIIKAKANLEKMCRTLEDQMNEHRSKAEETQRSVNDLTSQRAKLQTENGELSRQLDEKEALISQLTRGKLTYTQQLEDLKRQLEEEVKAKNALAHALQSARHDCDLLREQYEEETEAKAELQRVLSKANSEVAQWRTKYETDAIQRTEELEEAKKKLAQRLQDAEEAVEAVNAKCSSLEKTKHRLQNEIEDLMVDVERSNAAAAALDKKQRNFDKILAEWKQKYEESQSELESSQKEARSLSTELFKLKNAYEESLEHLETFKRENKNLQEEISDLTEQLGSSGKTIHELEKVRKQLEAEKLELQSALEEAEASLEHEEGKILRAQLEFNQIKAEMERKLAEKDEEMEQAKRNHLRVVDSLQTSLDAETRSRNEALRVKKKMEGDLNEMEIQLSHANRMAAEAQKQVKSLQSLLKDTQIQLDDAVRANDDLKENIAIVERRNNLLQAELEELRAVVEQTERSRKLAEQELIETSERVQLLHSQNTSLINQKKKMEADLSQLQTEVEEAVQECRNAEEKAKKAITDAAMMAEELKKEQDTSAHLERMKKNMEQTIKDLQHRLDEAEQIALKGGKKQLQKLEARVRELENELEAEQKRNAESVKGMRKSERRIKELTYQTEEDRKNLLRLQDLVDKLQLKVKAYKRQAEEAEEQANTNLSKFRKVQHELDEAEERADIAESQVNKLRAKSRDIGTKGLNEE
How it was run: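 Left-ventricle myofibrils from Yucatan minipigs were tested with a PK/LDH-coupled system, following NADH loss at 340 nm every 1.5-2 min for 75 min. Slopes were normalized to vehicle wells and fit to a 4-parameter logistic model; values are Y75 (25% ATPase reduction) or Y125 concentrations.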

[4] = Y75 value (75% activity relative to no compound)

Row | SMILES | Atrial EC25 [1, 4] [µM] | Skeletal EC25 ([2]; Y75 value) [µM] | Ventricular EC25 ([3]; Y75 value) [µM] | Atrial EC25 ([1]; Y75 value (no ‡ mark)) [µM] | Skeletal EC25 ([2]; Y75 value (no ‡ mark)) [µM] | Ventricular EC25 ([3]; Y75 value (no ‡ mark)) [µM]
1 | Cc1c(CC(=O)N[C@@H](C)c2ccc(C#N)cn2)c(=O)[nH]c2ccc(OC(F)(F)F)nc12 [compound 450] | 100.00 | 100.00 | 100.00 | – | – | –
2 | Cc1c(CC(=O)N[C@H]2COc3cccnc32)c(=O)[nH]c2ccnc(C#N)c12 (single isomer, unassigned) [compound 213] | 100.00 | 7.67 | 100.00 | – | – | –
3 | C[C@@H](NC(=O)C(F)(F)c1cc2c(C#N)c(F)ccc2[nH]c1=O)c1ncc(C#N)cc1F (single isomer, unassigned) [Compound 2529] | – | – | – | 0.24 | 0.24 | 0.35
4 | Cc1c(C2(C(=O)N[C@H](C)c3cccc(C#N)n3)CC2)c(=O)[nH]c2ccc(F)cc12 (single isomer, unassigned) [compound 2579] | – | – | – | 100.00 | 100.00 | 100.00
5 | Cc1c(CC(=O)N[C@@H](C)c2ncc(C#N)cc2F)c(=O)[nH]c2ccc(Cl)cc12 (single isomer, unassigned) [compound 2050] | – | – | – | 0.09 | 0.04 | 0.18
6 | Cc1c([C@@H](C)C(=O)N[C@@H](C)c2ccc(F)cc2F)c(=O)[nH]c2ccc(C(F)(F)F)nc12 (single isomer, unassigned) [compound 370] | 0.06 | 0.51 | 48.16 | – | – | –
7 | C[C@H](NC(=O)Cc1c(C2CC2)c2cc(F)ccc2[nH]c1=O)c1ccc(C#N)nn1 (single isomer, unassigned) [compound 2054] | – | – | – | 0.23 | 0.15 | 3.72
8 | Cc1nncc2[nH]c(=O)c(CC(=O)N[C@@H](C)c3ncc(C#N)cc3F)cc12 [compound 452] | 63.47 | 100.00 | 100.00 | – | – | –
9 | Cc1c(CC(=O)N[C@@H](C)c2ncc(F)cc2F)c(=O)[nH]c2ccc(O)nc12 (single isomer, unassigned) [compound 223] | 12.99 | 16.17 | 61.19 | – | – | –

Further lines, results first:

Row | Atrial EC25 [1, 4] [µM] | Skeletal EC25 ([2]; Y75 value) [µM] | Ventricular EC25 ([3]; Y75 value) [µM] | Atrial EC25 ([1]; Y75 value (no ‡ mark)) [µM] | Skeletal EC25 ([2]; Y75 value (no ‡ mark)) [µM] | Ventricular EC25 ([3]; Y75 value (no ‡ mark)) [µM] | SMILES
10 | 43 | 2.3 | 70 | – | – | – | Cc1nccc2[nH]c(=O)c(CC(=O)N[C@@H](C)c3c(F)cc(F)cc3F)c(C)c12 [compound 500]
11 | 3.65 | 11.14 | 52.00 | – | – | – | Cc1nccc2[nH]c(=O)c(CC(=O)N[C@@H](CCO)c3ccc(F)cc3F)c(C)c12 (single isomer, unassigned) [compound 342]
12 | 100.00 | 100.00 | 100.00 | – | – | – | Cc1nccc2[nH]c(=O)c(CC(=O)N[C@H](C)c3ccccn3)c(C)c12 (single isomer, unassigned) [compound 324]
13 | 100.00 | 0.40 | 100.00 | – | – | – | CC(=O)N1C[C@H](NC(=O)Cc2c(C)c3c(C)nccc3[nH]c2=O)c2c(F)cc(F)cc21 [compound 206]
14 | 76 | 3.4 | 78 | – | – | – | Cc1nccc2[nH]c(=O)c(CC(=O)N[C@H]3CCc4cc(F)cc(F)c43)c(C)c12 [compound 501]
15 | 100.00 | 27.68 | 100.00 | – | – | – | COc1ccccc1[C@@H](C)NC(=O)Cc1c(C)c2c(C)nccc2[nH]c1=O (single isomer, unassigned) [compound 318]
16 | 0.05 | 0.01 | 0.29 | – | – | – | Cc1c(CC(=O)N[C@@H](C)c2ccc(F)cc2F)c(=O)[nH]c2ccnc(F)c12 [compound 391]
17 | 1.17 | 0.11 | 6.35 | – | – | – | Cc1nccc2[nH]c(=O)c(CC(=O)N[C@@H](C)c3ccc(F)cc3F)c(C#N)c12 [compound 159]
